# According to patent US8691822B2, “Dihydropteridinone derivatives, preparation process and pharmaceutical use thereof” (Jiangsu Hengrui Medicine Co., Ltd., priority 2009, dated 2014):
# Read-outs that look alike come from different tables or passages of the source.
# Legend:
# [1] = system: human cervix cancer cells Hela; assay: Plk Cell Proliferation Inhibition Assay (CCK8, 72 hours); assay type: cell-based; details: Hela cells highly expressing Plk
# From the text: The following in vitro assay is to determine the activity of the compounds of the present invention for inhibiting the proliferation of human cervix cancer cells Hela, which has high expression of Plk.
# The in vitro cellular assay described here is to determine the activity of the tested compounds for inhibiting the proliferation of cancer cells, which has high expression of Plk. The activity is represented by the […]. The general procedures for the assay are given as follows: The Hela cells highly expressing Plk (Institute of biochemistry and cell biology) were seeded to 96-well cell culture plate at a suitable concentration (exp 3000 cells/ml medium). The cells then were cultured in carbon dioxide (CO2) incubator and grew overnight. Then, the cell culture medium was replaced by fresh one with tested compounds added in it at serial concentrations (general 7 to 9 concentrations). Then the cells were put back to the incubator and cultured for continuous 72 hours. 72 hours later, the activity of the tested compounds for inhibiting the cell proliferation was determined by using CCK8 (cell counting kit-8, Dojindo, NO:CK04) method. IC50 value on tested cells were calculated by the data of inhibition rates of serial concentrations of the tested compounds.
# [2] = system: xenografts of HT-116 human colon cancer; assay: Therapeutic effects against xenografts of HT-116 human colon cancer in nude mice; assay type: in vivo; details: nude mice bearing HT-116 xenografts
# Protocol: The therapeutic effect of Example 1 against xenografts of HT-116 human colon cancer in nude mice was estimated.
# Preparation method: the compound of Example 1 was prepared to corresponding concentration by using normal saline.
# BALB/cA-nude mice, 6 to 7 weeks old, ♀, purchased from Slaccas Experimental Animal LTD., CO.
# Nude mice were hypodermic inoculated HT-116 human colon cancer cell. After tumors grew to 60-150 mm^3, mice were randomly divided into teams (d0).
# The volume of tumors and the weigh of the mice were measured and recorded for 2-3 times per week.
# The calculation formula of the volume of tumor (V) is: V=½×a×b^2, a: length of tumor, b: width of tumor.
# [3] = Pharmacokinetics assay in rats (plasma concentration by LC/MS/MS); assay type: in vivo; details: SD rats, 25 mg/kg; for AUC: read-out: Area Under Curve AUC; for half-life: read-out: Half-Life t½ (converted); for MRT: read-out: Mean Residence Time MRT
# Protocol: The compound 37 of the present invention was administrated intravenous injection or intragastrically to rats to determine the drug concentration in plasma at different time points by LC/MS/MS method. The pharmacokinetic behavior of the compounds of the present invention was studied and evaluated in rats.
# The right amount of tested compound was dissolved in 0.5 mL of DMSO, added with 1.5 mL of 0.1 M HCl, then diluted with normal saline to 2.5 mg/mL of suspension before use.
# 8 Healthy adult adult SD rats, male and female in half, were divided into 2 groups. After an overnight fast, the rats were administered intragastrically or administered via tail intravenous injection at a dose of 25.0 mg/kg.
# 25 μL of rat plasmas taken at various time points after administration were mixed with 20 μL of internal standard solution and 150 μL methanol for 3 minutes by using a vortexer and the mixture was centrifuged for 10 minutes at 13,500 rpm. 5 μL of the supernatant was analyzed by LC-MS/MS.
# Plasma concentration was used as the abscissa, the ratio of chromatographic peak area between the sample and internal standard was used as the ordinate, the linear regression was carried out by the weighted least square method (w=1/x^2). The main pharmacokinetic parameters were calculated by DAS 2.0 software.
# [4] = both sexes, rat, plasma, po, intragastric administration
# [5] = both sexes, rat, plasma, intravenous injection
Clearance CL/F ([3]; intravenous injection) [mL/min/kg],"bioavailability ([3]; both sexes, rat, plasma, oral, intragastric vs intravenous, read-out: oral bioavailability F) [%]","Vd/F ([3]; both sexes, rat, plasma, po, intragastric administration, read-out: Apparent Distribution Volume Vz/F) [L/kg]","AUC [3, 4] [ng·h/mL]","CL/F ([3]; both sexes, rat, plasma, po, intragastric administration, read-out: Clearance CL/F (converted)) [mL/min/kg]","half-life [3, 4] [h]","MRT [3, 4] [h]","Cmax ([3]; both sexes, rat, plasma, po, intragastric administration, read-out: Plasma Conc. Cmax) [ng/mL]","AUC [3, 5] [ng·h/mL]","half-life [3, 5] [h]","MRT [3, 5] [h]",SMILES,IC50 [1] [nM],toxicity (in words) [2]
,,,,,,,,,,,"CC[C@@H]1C(=O)N(C)c2cnc(Nc3ccc(C(=O)NC4CCN(C)CC4)c4c3OCC4)nc2N1C1CCCC1 [Example 1, 7-[[(7R)-8-Cyclopentyl-7-ethyl-5-methyl-6-oxo-7H-pteridin-2-yl]amino]-N-(1-methyl-piperidyl)-2,3-dihydrobenzofuran-4-carboxamide]",0.9,less toxity
5.5 ± 0.5,59.4,13.6 ± 1,45600 ± 9230,9.5,17.2 ± 4.4,26.1 ± 5,1860 ± 150,76700 ± 6200,17.3 ± 3.3,22.8 ± 4.3,"CC[C@@H]1C(=O)N(C)c2cnc(Nc3ccc(C(=O)N[C@H]4CC[C@H](N5CCN(CC6CC6)CC5)CC4)c4c3OCC4)nc2N1C(C)C [Example 37, N-[(trans)-4-[4-(Cyclopropylmethyl)piperazin-1-yl]cyclohexyl]-7-[[(7R)-7-ethyl-8-isopropyl-5-methyl-6-oxo-7H-pteridin-2-yl]amino]-2,3-dihydrobenzofuran-4-carboxamide]",0.7,
